Test system: variant F49 of the protease from Bacillus lentus
Test: Residual proteolytic activity after storage in liquid washing agent (suc-AAPF-pNA release)
Format: biochemical
Conditions: 13 days at 30° C., based on initial activity of 100%
From the text: A liquid washing agent of the following composition served as a baseline washing agent formulation (all indications in percent by weight): 0.3 to 0.5% xanthan, 0.2 to 0.4% antifoaming agent, 6 to 7% glycerol, 0.3 to 0.5% ethanol, 4 to 7% FAEOS (fatty alcohol ether sulfate), 24 to 28% nonionic surfactants, 1 to 2% sodium citrate (dihydrate), 2 to 4% soda, 14 to 16% coconut fatty acids, 0.5% HEDP (1-hydroxyethane-(1,1-diphosphonic acid)), 0 to 0.4% PVP (polyvinylpyrrolidone), 0 to 0.05% optical brightener, 0 to 0.001% dye, remainder demineralized water.
The oligoaminobiphenyl oligocarboxylic acid 3,3-diamino-[1,1-biphenyl]-2,4-dicarboxylic acid was incorporated into this formulation as the component stabilizing the hydrolytic enzyme, as indicated below (see Table 1, indications in this regard in wt %). Comparison formulations that contained either boric acid as an enzyme stabilizer, or no enzyme stabilizer, served as controls. The protease used was variant F49 of the protease from Bacillus lentus in accordance with WO 95/23221 (quantity used: 1 wt % active substance).
After storage, the respective residual proteolytic activity was determined by way of the release of the para-nitroaniline (pNA) chromophore from the suc-L-Ala-L-Ala-L-Pro-L-Phe-p-nitroanilide substrate (suc-AAPF-pNA) (SEQ ID NO. 1). The protease cleaves the substrate and releases pNA. The release of pNA causes an increase in extinction at 410 nm, the time course of which is an indication of enzymatic activity (see Del Mar et al., 1979). Measurement occurred at a temperature of 25° C., at pH 8.6 and at a wavelength of 410 nm. The measurement time was 5 min, with a measurement interval from 20 s to 60 s. The proteolytic activity values obtained are indicated in Table 1 below, based on an initial activity of 100% when storage began.

[1] = 1.0 wt % (1%) stabilizer in baseline liquid washing agent

OB(O)O [boric acid, reference compound]
residual proteolytic activity after storage [1]: 74.9%

Nc1cc(-c2cccc(N)c2C(=O)O)ccc1C(=O)O
residual proteolytic activity after storage (0.1 wt % stabilizer in baseline liquid washing agent): 30.2%
residual proteolytic activity after storage (0.5 wt % stabilizer in baseline liquid washing agent): 43.5%
residual proteolytic activity after storage [1]: 48.0%
residual proteolytic activity after storage (2.0 wt % stabilizer in baseline liquid washing agent): 73.6%

Reference: patent publication US8883140B2 (Henkel AG & Co. KGaA, priority 2010, dated 2014)
